Read-outs that look alike come from different tables or passages of the source.
Experiments:
[1] = test system: brain monoamine metabolites; test: Increasing effect on concentration of brain monoamine metabolites; assay type: in vivo, mice (Std-ddy strain); conditions: Mus musculus, 2 h, non-dosed=100
Protocol: A group of 5 male mice (Std-ddy strain, 25-30 g) was used for examining effect of the test compounds on concentration of brain monoamine metabolites.
Mice were killed by decapitation 2 hours after treatment with the test compounds. Brains were quickly taken out, homogenized in 1N formic acid-acetone solution, and centrifuged in a refrigerated ultracentrifuge. The supernatant was evaporated by blowing with N2 gas. Then, the residue was again resolved in 0.01 N acetic acid, and served for determining concentration of dopamine metabolites, 3,4-dihydroxyphenylacetic acid (DOPAC) and homovanillic acid (HVA), a norepinephrine metabolite, 3-methyl-4-hydroxyphenylethylene glycol (MOPEG), and a serotonin metabolite, 5-hydroxyindole-3-acetic acid (5-HIAA) concentrations by HPLC with electrochemical detection. The effect of the test compounds on concentration of each monoamine metabolite is shown as % of control (level of non-dosed animals=100) in Table 4.

[2] = test system: apomorphine-induced vomiting; test: Antagonistic effect on apomorphine-induced vomiting; assay type: in vivo, dogs (Beagle); conditions: Canis lupus familiaris, sc, apomorphine 0.3 mg/kg s.c. 2 h after compound, read-out: Inhibitory ratio (apomorphine-induced vomiting)
Protocol: A group of 3-4 dogs (Beagle, 8-15 kg) was used for examining effects on the test compounds on apomorphine-induced vomiting, a known test for evaluating neuroleptic drugs.
Each dog was given a subcutaneous injection of apomorphine hydrochloride (0.3 mg/kg) two hours after the treatment of the test compounds. Then, the frequency of oral vomiting was counted for one hour. The mean counts of the compound-treated group were compared with those of the corresponding control (non-dosed) group, and the percent inhibition was calculated.

[3] = read-out: 5-HIAA concentration, % of control
[4] = read-out: DOPAC concentration, % of control
[5] = read-out: HVA concentration, % of control
[6] = read-out: MOPEG concentration, % of control

SMILES	response vs control in vivo at 10 mg/kg [1, 4]	response vs control in vivo at 10 mg/kg [1, 5]	further results
OCCN1CCN(c2cc(-c3ccccc3)c3c(n2)CCCCC3)CC1 [Example 24]	290%	317%	response vs control in vivo at 10 mg/kg [1, 3]: 150%; response vs control in vivo at 10 mg/kg [1, 6]: 139%
OCCN1CCN(c2cc(-c3ccc(F)cc3)c3c(n2)CCCCC3)CC1 [Example 26]	344%	263%	
CCN1CCN(c2cc(-c3cccc(F)c3)c3c(n2)CCCCC3)CC1 [Example 27]	208%	193%	inhibition in vivo at 3 mg/kg [2]: 47%
CCN1CCN(c2cc(-c3ccccc3F)c3c(n2)CCCCC3)CC1 [Example 29]	296%	274%	inhibition in vivo at 3 mg/kg [2]: 63%
Cc1ccc(-c2cc(N3CCN(CCO)CC3)nc3c2CCCCC3)cc1 [Example 35]	165%	170%	
OCCN1CCN(c2cc(-c3ccc(F)cc3)c3c(n2)CCCCCC3)CC1 [Example 37, 2-[4-(2-Hydroxyethyl)-1-piperazinyl]-4-(4-fluorophenyl)-5,6,7,8,9,10-hexahydrocycloocta[b]pyridine]			response vs control in vivo at 3 mg/kg [1, 3]: 95%; response vs control in vivo at 3 mg/kg [1, 4]: 268%; response vs control in vivo at 3 mg/kg [1, 5]: 203%; response vs control in vivo at 3 mg/kg [1, 6]: 143%; inhibition in vivo at 0.3 mg/kg ([2]; dose 0.3 mg/kg): 80%
Fc1ccc(-c2cc(N3CCN(C4CCCCC4)CC3)nc3c2CCCCCC3)cc1 [Example 39]	307%	233%	response vs control in vivo at 10 mg/kg [1, 3]: 97%; response vs control in vivo at 10 mg/kg [1, 6]: 117%
CCN1CCN(c2cc(-c3cccc(F)c3)c3c(n2)CCCCCC3)CC1 [Example 42]	258%	211%	
CCN1CCN(c2cc(-c3ccccc3F)c3c(n2)CCCCCC3)CC1 [Example 43]			inhibition in vivo at 1 mg/kg ([2]; dose 1.0 mg/kg): 96%
CCN1CCN(c2cc(-c3ccc(Cl)cc3)c3c(n2)CCCCCC3)CC1 [Example 44]	272%	210%	
CCN1CCN(c2cc(-c3cccc(Cl)c3)c3c(n2)CCCCCC3)CC1 [Example 46]	296%	235%	
CCN1CCN(c2cc(-c3ccc(OC)cc3)c3c(n2)CCCCCC3)CC1 [Example 49, 2-(4-Ethyl-1-piperazinyl)-4-(4-methoxyphenyl)-5,6,7,8,9,10-hexahydrocycloocta[b]pyridine]	197%	195%	
Cc1ccc(-c2cc(N3CCN(CCO)CC3)nc3c2CCCCCC3)cc1 [Example 52]	233%	216%	
CCN1CCN(c2cc(-c3ccc(F)c(F)c3)c3c(n2)CCCCCC3)CC1 [Example 54]			response vs control in vivo at 2 mg/kg [1, 4]: 251%; response vs control in vivo at 2 mg/kg [1, 5]: 250%
CCN1CCN(c2cc(-c3c(F)cccc3F)c3c(n2)CCCCCC3)CC1 [Example 55]			response vs control in vivo at 2 mg/kg [1, 4]: 379%; response vs control in vivo at 2 mg/kg [1, 5]: 240%

Reference: patent publication US5021421A, “2-(1-Piperazinyl)-4-phenylcycloalkanopyridine derivatives, processes for the production thereof, and pharmaceutical composition containing the same” (Dainippon Pharmaceutical Co., Ltd., priority 1989, dated 1991)
